Earlier results as cited in US20130109707A1, “FLUOROURACIL DERIVATIVES” (Concert Pharmaceuticals ,Inc., priority 2010, published 2013).

Details: patients treated with carmofur or with 5-fluorouracil; reported by Mixutani, Brain Nerve 2008

| SMILES | cases of leukoencephalopathy [%] |
| --- | --- |
| O=c1[nH]cc(F)c(=O)[nH]1 [5-fluorouracil] | 0.026 |
| CCCCCCNC(=O)n1cc(F)c(=O)[nH]c1=O [carmofur, 5-fluoro-N-hexyl-2,4-dioxo-pyrimidine-1-carboxamide] | 0.026 |
